# Publication PMC8509428, “The Phenoxyalkyltriazine Antagonists for 5-HT6 Receptor with Promising Procognitive and Pharmacokinetic Properties In Vivo in Search for a Novel Therapeutic Approach to Dementia Diseases” (International Journal of Molecular Sciences, 2021)
# Where two headings read alike, the source gives them in different places.
# Assays:
# [1] = test system: SH-SY5Y cells; assay: Intracellular ROS, DCFH-DA assay (neuroprotection); type: cell-based, human; conditions: SH-SY5Y neuroblastoma cells
# Procedure: ROS measurement was assayed by 2′,7′-Dichlorofluorescin diacetate (DCFH-DA, Sigma D6883). […] Briefly, SH-SY5Y cells (4 × 10^3 cells/well) were seeded in a black-sided, clear-bottom 384-well plate (Life Technologies, Warsaw, Poland) in DMEM without phenol red (Life Technologies, Warsaw, Poland) supplemented with 5% FBS and cultured for 24 h. The next day, the medium was removed, the cells were washed once with HBSS and treated for 45 min with non-fluorescent dye DCFH-DA (final concentration 25 μM, freshly prepared in warm HBSS). […] After that, toxic agents were added: H2O2 (200 μM), oxaliplatin (OXA, 25 μM) and rotenone (ROT, 32.5 μM) and the cells were incubated for 5 h. In our preliminary experiments, different concentration of toxic agents was tested to choose the convenient one that leads to 50% cell death. As a positive control, the cells were incubated alone with toxic agents. As a vehicle control, the cells were incubated with HBSS with 0.1% DMSO. In the presence of ROS, the non-fluorescent dye DCFH-DA is oxidized, producing fluorescent dichlorofluorescein (DCF). Fluorescence was measured at Ex/Em = 485/535 nm using the microplate reader EnSpire.
# [2] = Metabolic stability in rat liver microsomes; type: in vitro ADME
# Procedure: The tested 5-HT6R ligands (50 µM) were incubated in the presence of RLMs (1 mg/mL) in 10 mM Tris–HCl buffer (37 °C). The LC/MS analyses with additional MS ion fragmentation of the products and substrates were performed to determine the most probable structures of 5-HT6R ligands’ metabolites. LC/MS Waters ACQUITY™ TQD system with the TQ Detector (Waters, Milford, CT, USA).
# [3] = test system: rats; assay: Forced swim test (FST); type: in vivo, rat; conditions: for Immobility Time: 60 min before test, mean ± SEM
# Procedure: The experiment was carried out according to the method of [54]. On the first day of the experiment, the animals were gently individually placed in Plexiglas cylinders (40 cm high, 18 cm in diameter) containing 15 cm of water maintained at 23–25 °C for 15 min. On removal from water, the rats were placed for 30 min in a Plexiglas box under 60-W bulb to dry. On the following day (24 h later), the rats were replaced in the cylinder and the total duration of immobility was recorded during the whole 5-min test period. The immobility was assigned when no additional activity was observed other than that necessary to keep the rat’s head above the water. Fresh water was used for each animal.
# [4] = test system: rats; assay: Elevated plus-maze (EPM) test; type: in vivo, rat; conditions: for Open Arms % of entries / Open Arms % of time / Open Arms Distance / Open Arms Entries / Open Arms Time: mean ± SEM
# Description: The testing procedure was based on a method described by. Plus-maze apparatus (an automated device produced by Campden Instruments Ltd. (Leicestershire, UK) made of durable, high density, non-porous black plastic, elevated to a height of 50 cm, consisted of two open arms (50 × 10 cm) and two closed arms (50 × 10 cm, and 30 cm high walls), arranged so that the two arms of each type were opposite each other. The floor of the plus-maze was made of infrared transparent material what means that there are no visible sensors. Plus-maze apparatus was connected to PC software by control chassis. The experiments were conducted in a darkened room, only the center of the maze was illuminated with low-intensity light (30 lux measured on the maze level). Each rat was gently placed in the center of the plus-maze, facing one of the closed arms, immediately after a 5-min adaptation period in a plastic black box (60 × 60 × 35 cm), to increase the overall activity in the EPM. During a 5-min test period, automated Motor Monitor System recorded the number of entries into the closed and open arms and the time spent in either type of arms. The device counted an effective arm-entry when the four paws of a rat were into any arm. The maze was thoroughly cleaned after each trial. The EPM test is an “unconditional” anxiety-like test based on rodents’ natural aversion to heights and open space.
# [5] = target: human serotonin 5-HT6 receptor (Homo sapiens, UniProt P50406); assay: Functional assay for 5-HT6 receptor (cAMP, 1321N1 cells)
# [6] = test system: hepatoma HepG2 cell line; assay: Hepatotoxicity, HepG2 viability (MTS); type: cell-based; conditions: 0.1–100 µM, 72 h
# Procedure: Cells were grown under previously described conditions. […] The cells’ viability was determined by CellTiter 96® AQueous Non-Radioactive Cell Proliferation Assay (MTS), which was purchased from Promega® (Madison, WI, USA). The absorbance was measured using a microplate reader EnSpire (PerkinElmer, Waltham, MA USA) at 490 nm. All compounds were tested in quadruplicate.
# [7] = target: dopaminergic receptor D2; conditions: ± SD; cited from earlier work
# [8] = target: T1, CYP3A4 (Homo sapiens, UniProt P08684); assay: CYP3A4 P450-Glo assay; type: in vitro ADME
# T1 construct: purchased Promega
# Procedure: The luminescent CYP3A4 P450-Glo™ Promega® (Madison, WI, USA) was used for the investigation of potential drug-drug interactions. All assays and protocols were described before. The compounds were tested in triplicate at the final concentrations in the range from 0.01 to 25 μM. The luminescent signal was measured by using a microplate reader EnSpire PerkinElmer (Waltham, MA, USA).
# [9] = Bi-directional Caco-2 permeability assay; type: in vitro ADME; conditions: human, pH 7.4, Caco-2, 10 µM, triplicate
# [10] = estimated from MS spectra supported by in silico data
# [11] = 1321-N1, read-out: 5-HT6 Antagonist Mode Emax
# [12] = 1321-N1, read-out: 5-HT6R Agonist Mode Emax
# human serotonin 5-HT6 receptor, sequence (P50406 whole entry): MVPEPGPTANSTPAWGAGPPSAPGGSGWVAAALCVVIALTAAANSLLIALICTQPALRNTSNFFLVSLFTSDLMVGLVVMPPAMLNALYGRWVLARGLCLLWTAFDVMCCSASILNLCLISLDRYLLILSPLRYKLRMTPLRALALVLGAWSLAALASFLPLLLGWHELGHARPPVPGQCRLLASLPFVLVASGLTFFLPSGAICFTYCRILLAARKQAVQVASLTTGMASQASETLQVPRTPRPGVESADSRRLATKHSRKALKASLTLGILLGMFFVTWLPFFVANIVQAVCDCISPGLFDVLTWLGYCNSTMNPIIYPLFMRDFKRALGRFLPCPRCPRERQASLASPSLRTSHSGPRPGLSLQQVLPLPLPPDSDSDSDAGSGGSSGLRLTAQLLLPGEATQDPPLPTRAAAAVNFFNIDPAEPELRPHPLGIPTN
# T1 sequence (P08684 whole entry): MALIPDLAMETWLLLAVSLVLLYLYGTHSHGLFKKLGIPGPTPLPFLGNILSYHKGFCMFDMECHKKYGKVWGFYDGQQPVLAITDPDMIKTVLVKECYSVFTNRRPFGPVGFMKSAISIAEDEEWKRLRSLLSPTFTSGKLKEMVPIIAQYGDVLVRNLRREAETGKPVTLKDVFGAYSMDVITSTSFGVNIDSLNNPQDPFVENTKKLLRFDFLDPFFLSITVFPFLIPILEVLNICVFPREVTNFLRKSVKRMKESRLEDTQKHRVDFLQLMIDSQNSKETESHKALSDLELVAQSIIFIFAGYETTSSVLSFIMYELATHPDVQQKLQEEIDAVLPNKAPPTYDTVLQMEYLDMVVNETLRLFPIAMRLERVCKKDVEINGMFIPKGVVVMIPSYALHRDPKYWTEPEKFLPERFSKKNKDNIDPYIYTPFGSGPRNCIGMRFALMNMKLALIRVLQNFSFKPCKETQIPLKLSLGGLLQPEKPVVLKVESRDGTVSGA
Structure (SMILES),protective activity against rotenone-induced neurotoxicity [1],"parent compound remaining in the reaction mixture (Area%) ([2]; RLMs, 120 min incubation) [%]","Metabolic Pathway, metabolite M1 [2, 10]","Metabolic Pathway, metabolite M2 [2, 10]",Immobility Time ([3]; 1 mg/kg i.p.) [s],Immobility Time ([3]; 3 mg/kg i.p.) [s],decrease of immobility time vs vehicle-treated group ([3]; 10 mg/kg),Immobility Time ([3]; 10 mg/kg i.p.) [s],Open Arms % of entries ([4]; 0.3 mg/kg i.p.) [%],Open Arms % of time ([4]; 0.3 mg/kg i.p.) [%],Open Arms Distance ([4]; 0.3 mg/kg i.p.) [cm],Open Arms Entries ([4]; 0.3 mg/kg i.p.),Open Arms Time ([4]; 0.3 mg/kg i.p.) [s],Open Arms % of entries ([4]; 1 mg/kg i.p.) [%],Open Arms % of time ([4]; 1 mg/kg i.p.) [%],Open Arms Distance ([4]; 1 mg/kg i.p.) [cm],Open Arms Entries ([4]; 1 mg/kg i.p.),Open Arms Time ([4]; 1 mg/kg i.p.) [s],Open Arms % of entries ([4]; 3 mg/kg i.p.) [%],Open Arms % of time ([4]; 3 mg/kg i.p.) [%],other results
"CCC(Oc1cccc(Cl)c1Cl)c1nc(N)nc(N2CCN(C)CC2)n1 (racemic) [Compound 2, (RS)-4-[1-(2,3-dichlorophenoxy)propyl]-6-(4-methylpiperazin-1-yl)-1,3,5-triazin-2-amine]",protective activity,80,hydroxylation,hydroxylation,223.13 ± 11.4,220.71 ± 4.7,25%,171.38 ± 12.80,23.97 ± 4.97,14.85 ± 3.30,423 ± 87,6.50 ± 1.60,36.85 ± 8.90,26.53 ± 3.69,10.10 ± 1.20,279 ± 45,5.86 ± 0.90,24.75 ± 3.19,41.89 ± 3.37,30.00 ± 3.60,"parent structure biotransformed ([2]; RLMs, 120 min incubation): 20%; Metabolic Pathway, metabolite M3 [2, 10]: demethylation; increase of distance travelled in the open arms vs vehicle ([4]; 3 mg/kg i.p.): 134%; increase of number of open-arm entries vs vehicle ([4]; 3 mg/kg i.p.): 160%; increase of percentage of time spent in open arms vs vehicle ([4]; 3 mg/kg i.p.): 137%; increase of time spent in the open arms vs vehicle ([4]; 3 mg/kg i.p.): 120%; Open Arms Distance ([4]; 3 mg/kg i.p.): 914 ± 126 cm; Open Arms Entries ([4]; 3 mg/kg i.p.): 13.00 ± 2.30; Open Arms Time ([4]; 3 mg/kg i.p.): 72.23 ± 7.30 s; increase of percentage of entries into open arms vs vehicle ([4]; 3 mg/kg i.p., not significant): 68%; dose with anxiolytic-like activity in EPM test ([4]; i.p.): 3 mg/kg; Emax [5, 11]: 96%; Emax [5, 12]: 5 ± 1.1%; hepatotoxicity effect, HepG2 viability [6]: no hepatotoxicity effect; Ki [7]: 421 nM; inhibition against CYP3A4 ([8]; all tested concentrations (0.1 to 25 μM)): did not display an inhibition; Papp A→B at 2 h, 10 µM [9]: 50.3 ± 6.22 ×10⁻⁶ cm/s; Papp B→A at 2 h, 10 µM [9]: 21.1 ± 2.14 ×10⁻⁶ cm/s"
"CCC(Oc1ccccc1)c1nc(N)nc(N2CCN(C)CC2)n1 (racemic) [Compound 3, (RS)-4-(4-methylpiperazin-1-yl)-6-(1-phenoxypropyl)-1,3,5-triazin-2-amine]",protective activity,95.7,decomposition and triple hydroxylation,hydroxylation,177.50 ± 6.1,159.13 ± 13.3,about 36%,134.63 ± 16.7,28.54 ± 6.70,9.84 ± 1.50,340 ± 59,5.28 ± 0.42,24.27 ± 3.41,33.64 ± 2.70,18.30 ± 4.10,646 ± 145,8.43 ± 1.36,44.24 ± 9.71,24.39 ± 7.60,7.03 ± 2.00,"decrease of immobility time vs vehicle-treated group ([3]; 3 mg/kg): about 30%; Open Arms Distance ([4]; 3 mg/kg i.p.): 231 ± 87 cm; Open Arms Entries ([4]; 3 mg/kg i.p.): 4.17 ± 1.10; Open Arms Time ([4]; 3 mg/kg i.p.): 19.00 ± 5.50 s; anxiolytic-like activity in EPM test ([4]; i.p., 60 min before test): did not show anxiolytic-like activity; Emax [5, 11]: 100%; Emax [5, 12]: 9 ± 1.4%; hepatotoxicity effect, HepG2 viability [6]: no hepatotoxicity effect; Ki [7]: 1510 nM; CYP3A4 activity remaining ([8]; 10 μM of compound): 64%; Papp A→B at 2 h, 10 µM [9]: 3.16 ± 1.35 ×10⁻⁶ cm/s; Papp B→A at 2 h, 10 µM [9]: 10.1 ± 0.15 ×10⁻⁶ cm/s"
